Laboratory results as given in ChEMBL document CHEMBL5653615 (J Biol Chem, 2013).

Experiments:
[1] = target: Mitogen-activated protein kinase kinase kinase kinase 5 (Homo sapiens) (UniProt Q9Y4K4); assay: Inhibition of human KHS at 1.82 nM by HotSpot assay relative to control
[2] = target: T1, MAP/microtubule affinity-regulating kinase 4 (Homo sapiens) (UniProt Q96L34); assay: Inhibition of human MARK4 at 1.82 nM by HotSpot assay relative to control
T1 sequence (whole entry): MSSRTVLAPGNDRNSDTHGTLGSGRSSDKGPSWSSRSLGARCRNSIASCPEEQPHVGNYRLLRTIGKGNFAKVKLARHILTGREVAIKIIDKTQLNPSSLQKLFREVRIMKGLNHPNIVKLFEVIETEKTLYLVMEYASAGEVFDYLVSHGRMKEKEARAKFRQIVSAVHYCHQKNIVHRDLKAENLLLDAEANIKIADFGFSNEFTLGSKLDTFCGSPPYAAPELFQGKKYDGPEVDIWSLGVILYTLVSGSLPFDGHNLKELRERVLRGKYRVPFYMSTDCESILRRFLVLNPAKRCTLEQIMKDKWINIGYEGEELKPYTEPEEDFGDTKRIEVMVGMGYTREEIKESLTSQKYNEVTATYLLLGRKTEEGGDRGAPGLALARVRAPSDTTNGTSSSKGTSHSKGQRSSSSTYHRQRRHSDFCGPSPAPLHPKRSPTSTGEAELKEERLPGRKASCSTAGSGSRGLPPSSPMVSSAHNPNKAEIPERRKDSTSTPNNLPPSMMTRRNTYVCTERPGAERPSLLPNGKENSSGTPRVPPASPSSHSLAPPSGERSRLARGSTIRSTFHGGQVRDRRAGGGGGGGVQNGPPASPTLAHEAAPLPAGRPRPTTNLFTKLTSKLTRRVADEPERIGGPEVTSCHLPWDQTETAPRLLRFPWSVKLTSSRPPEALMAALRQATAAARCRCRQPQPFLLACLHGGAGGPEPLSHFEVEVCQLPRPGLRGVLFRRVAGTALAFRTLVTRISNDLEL

[3] = target: T2, Serine/threonine-protein kinase D2 (Homo sapiens) (UniProt Q9BZL6); assay: Inhibition of human PRKD2 at 1.82 nM by HotSpot assay relative to control
T2 sequence (whole entry): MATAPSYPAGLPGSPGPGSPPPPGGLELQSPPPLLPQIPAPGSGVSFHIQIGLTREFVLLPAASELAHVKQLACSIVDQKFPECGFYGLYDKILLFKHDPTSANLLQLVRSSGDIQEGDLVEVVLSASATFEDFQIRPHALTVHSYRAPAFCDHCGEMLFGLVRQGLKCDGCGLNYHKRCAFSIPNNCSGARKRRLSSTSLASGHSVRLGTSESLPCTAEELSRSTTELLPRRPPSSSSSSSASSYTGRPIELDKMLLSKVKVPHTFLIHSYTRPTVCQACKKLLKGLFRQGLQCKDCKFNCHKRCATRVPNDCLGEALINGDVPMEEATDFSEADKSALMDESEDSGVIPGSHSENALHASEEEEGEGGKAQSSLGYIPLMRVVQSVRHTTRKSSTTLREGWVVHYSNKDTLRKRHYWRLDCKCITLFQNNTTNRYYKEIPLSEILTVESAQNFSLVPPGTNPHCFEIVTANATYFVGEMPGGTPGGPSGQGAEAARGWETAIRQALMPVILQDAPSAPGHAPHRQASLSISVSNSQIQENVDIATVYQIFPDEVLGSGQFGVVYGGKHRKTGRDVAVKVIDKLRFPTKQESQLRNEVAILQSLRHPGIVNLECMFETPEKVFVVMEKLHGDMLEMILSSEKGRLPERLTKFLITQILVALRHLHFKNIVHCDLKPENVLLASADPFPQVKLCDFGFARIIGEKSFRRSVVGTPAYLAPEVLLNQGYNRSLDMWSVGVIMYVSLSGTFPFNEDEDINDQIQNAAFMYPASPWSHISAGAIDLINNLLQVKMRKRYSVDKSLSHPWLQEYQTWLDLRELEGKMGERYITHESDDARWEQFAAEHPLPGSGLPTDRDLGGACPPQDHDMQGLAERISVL

[4] = target: T3, NUAK family SNF1-like kinase 2 (Homo sapiens) (UniProt Q9H093); assay: Inhibition of human NUAK2 at 1.82 nM by HotSpot assay relative to control
T3 sequence (whole entry): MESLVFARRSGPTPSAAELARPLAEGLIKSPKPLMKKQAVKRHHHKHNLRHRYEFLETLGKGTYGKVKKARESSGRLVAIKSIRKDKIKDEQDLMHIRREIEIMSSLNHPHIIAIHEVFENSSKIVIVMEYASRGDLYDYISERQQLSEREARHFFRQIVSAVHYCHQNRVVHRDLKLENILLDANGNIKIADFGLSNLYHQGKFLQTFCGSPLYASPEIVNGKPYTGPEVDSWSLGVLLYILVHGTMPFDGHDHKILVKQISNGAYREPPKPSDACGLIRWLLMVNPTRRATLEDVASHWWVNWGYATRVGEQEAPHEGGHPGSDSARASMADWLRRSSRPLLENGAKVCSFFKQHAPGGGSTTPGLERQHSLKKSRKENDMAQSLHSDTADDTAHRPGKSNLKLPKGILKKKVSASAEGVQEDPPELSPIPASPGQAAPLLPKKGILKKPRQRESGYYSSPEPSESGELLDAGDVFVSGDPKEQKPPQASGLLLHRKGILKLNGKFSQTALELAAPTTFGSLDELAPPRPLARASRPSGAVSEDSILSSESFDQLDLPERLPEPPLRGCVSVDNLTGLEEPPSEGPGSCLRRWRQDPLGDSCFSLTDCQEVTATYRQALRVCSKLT

[5] = target: T4, Aurora kinase A (Homo sapiens) (UniProt O14965); assay: Inhibition of human Aurora A at 18.6 nM by HotSpot assay relative to control
T4 sequence (whole entry): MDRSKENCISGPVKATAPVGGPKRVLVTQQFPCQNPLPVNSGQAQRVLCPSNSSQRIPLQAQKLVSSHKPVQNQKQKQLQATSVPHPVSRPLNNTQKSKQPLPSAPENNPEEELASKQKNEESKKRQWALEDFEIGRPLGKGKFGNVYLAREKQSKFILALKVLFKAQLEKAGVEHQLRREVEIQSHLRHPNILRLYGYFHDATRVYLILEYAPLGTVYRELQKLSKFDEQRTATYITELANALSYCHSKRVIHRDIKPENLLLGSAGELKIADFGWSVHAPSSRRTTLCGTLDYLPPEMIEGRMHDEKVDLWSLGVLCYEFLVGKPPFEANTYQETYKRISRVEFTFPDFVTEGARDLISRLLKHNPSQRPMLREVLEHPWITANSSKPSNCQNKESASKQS

[6] = target: Dual specificity protein kinase CLK3 (Homo sapiens) (UniProt P49761); assay: Inhibition of human CLK3 at 18.6 nM by HotSpot assay relative to control
Dual specificity protein kinase CLK3 (Homo sapiens), sequence (P49761 whole entry, looked up): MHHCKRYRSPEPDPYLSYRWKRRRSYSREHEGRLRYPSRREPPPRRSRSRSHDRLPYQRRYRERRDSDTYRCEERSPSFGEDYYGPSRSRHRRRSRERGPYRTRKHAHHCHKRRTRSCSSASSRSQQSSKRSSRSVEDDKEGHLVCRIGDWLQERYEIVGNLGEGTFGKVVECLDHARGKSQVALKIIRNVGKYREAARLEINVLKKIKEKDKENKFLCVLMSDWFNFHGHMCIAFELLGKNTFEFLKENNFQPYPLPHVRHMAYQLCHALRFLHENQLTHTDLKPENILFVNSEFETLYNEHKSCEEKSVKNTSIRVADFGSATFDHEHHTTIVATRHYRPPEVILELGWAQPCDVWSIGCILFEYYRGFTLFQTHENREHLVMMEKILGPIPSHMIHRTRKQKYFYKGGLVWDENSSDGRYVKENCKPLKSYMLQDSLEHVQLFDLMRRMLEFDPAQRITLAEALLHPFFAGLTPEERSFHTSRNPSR

[7] = target: Glycogen synthase kinase-3 alpha (Homo sapiens) (UniProt P49840); assay: Inhibition of human GSK3a at 18.6 nM by HotSpot assay relative to control
Glycogen synthase kinase-3 alpha (Homo sapiens), sequence (P49840 2-483 limits assumed): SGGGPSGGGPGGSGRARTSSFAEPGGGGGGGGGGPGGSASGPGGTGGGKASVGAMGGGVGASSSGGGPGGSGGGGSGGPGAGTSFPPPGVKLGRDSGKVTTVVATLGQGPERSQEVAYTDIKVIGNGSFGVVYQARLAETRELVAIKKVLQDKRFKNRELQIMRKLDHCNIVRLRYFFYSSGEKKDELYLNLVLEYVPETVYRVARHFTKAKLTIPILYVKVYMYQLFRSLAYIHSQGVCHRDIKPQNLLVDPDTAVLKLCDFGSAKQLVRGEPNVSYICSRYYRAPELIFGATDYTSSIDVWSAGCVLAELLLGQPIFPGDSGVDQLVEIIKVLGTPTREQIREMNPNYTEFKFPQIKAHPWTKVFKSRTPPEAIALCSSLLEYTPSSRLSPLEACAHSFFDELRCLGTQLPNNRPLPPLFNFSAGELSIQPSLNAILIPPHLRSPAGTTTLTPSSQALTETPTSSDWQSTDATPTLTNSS

Mitogen-activated protein kinase kinase kinase kinase 5 (Homo sapiens), sequence (Q9Y4K4 whole entry, looked up): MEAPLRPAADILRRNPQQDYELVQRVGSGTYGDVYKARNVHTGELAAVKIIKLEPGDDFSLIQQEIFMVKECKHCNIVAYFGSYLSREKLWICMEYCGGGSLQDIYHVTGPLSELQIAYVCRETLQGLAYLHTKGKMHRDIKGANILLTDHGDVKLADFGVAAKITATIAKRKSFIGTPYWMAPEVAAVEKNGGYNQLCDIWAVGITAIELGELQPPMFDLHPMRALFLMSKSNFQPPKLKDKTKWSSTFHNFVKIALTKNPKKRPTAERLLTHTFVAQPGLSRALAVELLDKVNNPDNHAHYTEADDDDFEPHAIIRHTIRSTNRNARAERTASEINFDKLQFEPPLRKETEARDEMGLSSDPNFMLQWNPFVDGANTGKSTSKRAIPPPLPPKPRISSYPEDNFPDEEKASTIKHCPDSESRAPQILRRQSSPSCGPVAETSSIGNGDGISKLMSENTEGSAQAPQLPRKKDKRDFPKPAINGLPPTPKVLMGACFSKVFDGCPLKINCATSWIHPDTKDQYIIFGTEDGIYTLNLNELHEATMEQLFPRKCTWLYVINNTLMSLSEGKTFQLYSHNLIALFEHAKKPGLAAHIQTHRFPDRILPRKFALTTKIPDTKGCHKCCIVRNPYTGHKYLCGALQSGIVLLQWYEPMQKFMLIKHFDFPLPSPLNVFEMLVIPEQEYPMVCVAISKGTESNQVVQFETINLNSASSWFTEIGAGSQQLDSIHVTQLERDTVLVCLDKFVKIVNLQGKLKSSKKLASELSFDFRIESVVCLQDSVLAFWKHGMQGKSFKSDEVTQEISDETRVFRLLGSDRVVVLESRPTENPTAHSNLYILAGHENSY

Compound: C[C@@]1(C(=O)Nc2ccc(F)nc2)CCCN1c1nc(Nc2cc(C3CC3)n[nH]2)c2cccn2n1
- inhibition [1]: -3.57%
- inhibition [2]: 2.64%
- inhibition [3]: 2.22%
- inhibition [4]: 8.18%

Compound: C[C@]1(O)C[C@@H](c2nc(-c3ccc4ccc(-c5ccccc5)nc4c3)c3c(N)nccn32)C1
- inhibition [5]: -2.4%
- inhibition [6]: -0.8%
- inhibition [7]: -3.5%
